“And” between values parts separate entries of the source, which are not always exact repeats. Equal entries are not always repeated.
Experiments:
[1] = biological target: T1, Parent (Rho-MatB) (Rhodopseudomonas palustris, UniProt Q6ND88, C106A/K488A/Q457C/R286C); assay: Competition fluorescence titration of ATP into 0.5 µM parent Rho-MatB at fixed AMP (500 or 1000 µM) in 50 mM Hepes pH 7.0, 100 mM NaCl, 10 mM MgCl2, 0.3 mg/ml BSA, 20°C.; format: binding; conditions: read-out: KAMP (ATP titrated at fixed AMP)
T1 construct: N-terminal His6-tag, expressed in E. coli; two tetramethylrhodamines (5-IATR) on introduced cysteines
T1 sequence (Q6ND88 entry or part of it C106A/R286C/Q457C/K488A): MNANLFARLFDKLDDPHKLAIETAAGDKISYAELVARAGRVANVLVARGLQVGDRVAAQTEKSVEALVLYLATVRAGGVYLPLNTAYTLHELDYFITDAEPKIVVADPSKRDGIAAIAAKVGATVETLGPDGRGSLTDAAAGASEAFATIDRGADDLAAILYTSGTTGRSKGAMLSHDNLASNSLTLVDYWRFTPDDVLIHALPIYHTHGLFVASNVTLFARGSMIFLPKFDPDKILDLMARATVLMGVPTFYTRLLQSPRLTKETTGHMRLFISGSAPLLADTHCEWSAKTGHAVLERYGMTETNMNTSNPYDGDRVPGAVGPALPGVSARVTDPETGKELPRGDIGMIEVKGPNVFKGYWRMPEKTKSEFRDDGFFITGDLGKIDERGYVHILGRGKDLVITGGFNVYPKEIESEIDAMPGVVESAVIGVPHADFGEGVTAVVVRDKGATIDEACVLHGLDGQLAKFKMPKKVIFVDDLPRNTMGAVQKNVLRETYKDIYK
Method: Fig 6 Competition titrations between ATP and AMP binding to Rho-MatB variants. Titrations were under conditions as Fig 2, using 0.5 μM of the Rho-MatB variant. (A) Titration of AMP into Rho-MatB complex with a fixed concentration of ATP: 7 μM for the parent Rho-MatB (“wt”) and S170A, 50 μM for T303A and 150 μM for T167A. One representative data set is shown. Fluorescence changes were fit to A0[ATP]/(K' +[ATP]), where the apparent dissociation constant for ATP, K' = KATP(1 + [AMP]/KAMP). KATP and KAMP are the actual dissociation constants for ATP and AMP and A0 is the total fluorescence change at that ATP concentration. Taking the previously obtained values for KATP, the values of KAMP were 169 ± 23 μM for the parent Rho-MatB, 225 ± 15 μM for S170A, and 300 ± 12 μM for T167A. […] Data were fitted to the equation above, giving KAMP as 233 ± 11 μM using 500 μM AMP and 255 ± 16 μM at 1000 μM AMP.
Doing the competition titration the other way round, fixing AMP, caused a shift in apparent dissociation constant of ATP. […] Alternatively, fitting the data as described in Fig 6 gave values for the AMP dissociation constant that were similar to those in Fig 6A. The amplitude of the signal changes only little with AMP, but the range of ATP concentrations over the maximal signal change, is increased as AMP increases

[2] = biological target: T2, H207A Rho-MatB (Rhodopseudomonas palustris, UniProt Q6ND88, C106A/H207A/K488A/Q457C/R286C); assay: Survey fluorescence titration of tetramethylrhodamine-labelled MatB variants with ATP in 50 mM Tris.HCl pH 7.5, 150 mM NaCl, 10 mM MgCl2, 0.3 mg/ml BSA, 20°C, without full optimization of labelling and purification.; format: binding
T2 construct: His6-tag, Rho-MatB background, two tetramethylrhodamines (5-IATR)
T2 sequence (Q6ND88 entry or part of it C106A/H207A/R286C/Q457C/K488A): as the sequence (Q6ND88 entry or part of it C106A/R286C/Q457C/K488A) above, with H207A counted along it
Method: (§1) Data from titrations to measure nucleotide binding were corrected for dilution and analyzed with a quadratic binding curve using Grafit software: F=Fmin+(Fmax−Fmin)×(Kd+L+P−(Kd+L+P)^2−4×P×L)/2×P where P and L are the total concentrations of protein and ligand, respectively, Kd is the dissociation constant, and Fmin and Fmax are the fluorescence intensities of the free and ligand- bound protein, respectively.
(§2) The labeled proteins were then tested for a fluorescence change upon ATP binding in the presence of Mg^2+ (Table 1). For variants showing a significant fluorescence change, the affinity for ATP was determined by titration (Table 1).

[3] = biological target: T3, M302A Rho-MatB (Rhodopseudomonas palustris, UniProt Q6ND88, C106A/K488A/M302A/Q457C/R286C); assay: as above; format: binding
T3 construct: His6-tag, Rho-MatB background, two tetramethylrhodamines (5-IATR)
T3 sequence (Q6ND88 entry or part of it C106A/R286C/M302A/Q457C/K488A): as the sequence (Q6ND88 entry or part of it C106A/R286C/Q457C/K488A) above, with M302A counted along it
Method: as §1, §2

[4] = biological target: T1, Parent (Rho-MatB); assay: as above; format: binding
Method: as §1, §2

[5] = biological target: T4, Q490A Rho-MatB (Rhodopseudomonas palustris, UniProt Q6ND88, C106A/K488A/Q457C/Q490A/R286C); assay: as above; format: binding
T4 construct: His6-tag, Rho-MatB background, two tetramethylrhodamines (5-IATR)
T4 sequence (Q6ND88 entry or part of it C106A/R286C/Q457C/K488A/Q490A): as the sequence (Q6ND88 entry or part of it C106A/R286C/Q457C/K488A) above, with Q490A counted along it
Method: as §1, §2

[6] = biological target: T5, R169A Rho-MatB (Rhodopseudomonas palustris, UniProt Q6ND88, C106A/K488A/Q457C/R169A/R286C); assay: as above; format: binding
T5 construct: His6-tag, Rho-MatB background, two tetramethylrhodamines (5-IATR)
T5 sequence (Q6ND88 entry or part of it C106A/R169A/R286C/Q457C/K488A): as the sequence (Q6ND88 entry or part of it C106A/R286C/Q457C/K488A) above, with R169A counted along it
Method: as §1, §2

[7] = biological target: T6, R299A Rho-MatB (Rhodopseudomonas palustris, UniProt Q6ND88, C106A/K488A/Q457C/R286C/R299A); assay: as above; format: binding
T6 construct: His6-tag, Rho-MatB background, two tetramethylrhodamines (5-IATR)
T6 sequence (Q6ND88 entry or part of it C106A/R286C/R299A/Q457C/K488A): as the sequence (Q6ND88 entry or part of it C106A/R286C/Q457C/K488A) above, with R299A counted along it
Method: as §1, §2

[8] = biological target: T7, S164A Rho-MatB (Rhodopseudomonas palustris, UniProt Q6ND88, C106A/K488A/Q457C/R286C/S164A); assay: as above; format: binding
T7 construct: His6-tag, Rho-MatB background, two tetramethylrhodamines (5-IATR)
T7 sequence (Q6ND88 entry or part of it C106A/S164A/R286C/Q457C/K488A): as the sequence (Q6ND88 entry or part of it C106A/R286C/Q457C/K488A) above, with S164A counted along it
Method: as §1, §2

[9] = biological target: T8, S170A Rho-MatB (Rhodopseudomonas palustris, UniProt Q6ND88, C106A/K488A/Q457C/R286C/S170A); assay: as above; format: binding
T8 construct: His6-tag, Rho-MatB background, two tetramethylrhodamines (5-IATR)
T8 sequence (Q6ND88 entry or part of it C106A/S170A/R286C/Q457C/K488A): as the sequence (Q6ND88 entry or part of it C106A/R286C/Q457C/K488A) above, with S170A counted along it
Method: as §1, §2

[10] = biological target: T9, T163A Rho-MatB (Rhodopseudomonas palustris, UniProt Q6ND88, C106A/K488A/Q457C/R286C/T163A); assay: as above; format: binding
T9 construct: His6-tag, Rho-MatB background, two tetramethylrhodamines (5-IATR)
T9 sequence (Q6ND88 entry or part of it C106A/T163A/R286C/Q457C/K488A): as the sequence (Q6ND88 entry or part of it C106A/R286C/Q457C/K488A) above, with T163A counted along it
Method: as §1, §2

[11] = biological target: T10, T166A Rho-MatB (Rhodopseudomonas palustris, UniProt Q6ND88, C106A/K488A/Q457C/R286C/T166A); assay: as above; format: binding
T10 construct: His6-tag, Rho-MatB background, two tetramethylrhodamines (5-IATR)
T10 sequence (Q6ND88 entry or part of it C106A/T166A/R286C/Q457C/K488A): as the sequence (Q6ND88 entry or part of it C106A/R286C/Q457C/K488A) above, with T166A counted along it
Method: as §1, §2

[12] = biological target: T11, T167A Rho-MatB (Rhodopseudomonas palustris, UniProt Q6ND88, C106A/K488A/Q457C/R286C/T167A); assay: as above; format: binding
T11 construct: His6-tag, Rho-MatB background, two tetramethylrhodamines (5-IATR)
T11 sequence (Q6ND88 entry or part of it C106A/T167A/R286C/Q457C/K488A): as the sequence (Q6ND88 entry or part of it C106A/R286C/Q457C/K488A) above, with T167A counted along it
Method: as §1, §2

[13] = biological target: T12, T167S Rho-MatB (Rhodopseudomonas palustris, UniProt Q6ND88, C106A/K488A/Q457C/R286C/T167S); assay: as above; format: binding
T12 construct: His6-tag, Rho-MatB background, two tetramethylrhodamines (5-IATR)
T12 sequence (Q6ND88 entry or part of it C106A/T167S/R286C/Q457C/K488A): as the sequence (Q6ND88 entry or part of it C106A/R286C/Q457C/K488A) above, with T167S counted along it
Method: as §1, §2

[14] = biological target: T13, T208A Rho-MatB (Rhodopseudomonas palustris, UniProt Q6ND88, C106A/K488A/Q457C/R286C/T208A); assay: as above; format: binding
T13 construct: His6-tag, Rho-MatB background, two tetramethylrhodamines (5-IATR)
T13 sequence (Q6ND88 entry or part of it C106A/T208A/R286C/Q457C/K488A): as the sequence (Q6ND88 entry or part of it C106A/R286C/Q457C/K488A) above, with T208A counted along it
Method: as §1, §2

[15] = biological target: T14, T303A Rho-MatB (Rhodopseudomonas palustris, UniProt Q6ND88, C106A/K488A/Q457C/R286C/T303A); assay: as above; format: binding
T14 construct: His6-tag, Rho-MatB background, two tetramethylrhodamines (5-IATR)
T14 sequence (Q6ND88 entry or part of it C106A/R286C/T303A/Q457C/K488A): as the sequence (Q6ND88 entry or part of it C106A/R286C/Q457C/K488A) above, with T303A counted along it
Method: as §1, §2

[16] = biological target: T15, T303S Rho-MatB (Rhodopseudomonas palustris, UniProt Q6ND88, C106A/K488A/Q457C/R286C/T303S); assay: as above; format: binding
T15 construct: His6-tag, Rho-MatB background, two tetramethylrhodamines (5-IATR)
T15 sequence (Q6ND88 entry or part of it C106A/R286C/T303S/Q457C/K488A): as the sequence (Q6ND88 entry or part of it C106A/R286C/Q457C/K488A) above, with T303S counted along it
Method: as §1, §2

[17] = biological target: T16, Y300A Rho-MatB (Rhodopseudomonas palustris, UniProt Q6ND88, C106A/K488A/Q457C/R286C/Y300A); assay: as above; format: binding
T16 construct: His6-tag, Rho-MatB background, two tetramethylrhodamines (5-IATR)
T16 sequence (Q6ND88 entry or part of it C106A/R286C/Y300A/Q457C/K488A): as the sequence (Q6ND88 entry or part of it C106A/R286C/Q457C/K488A) above, with Y300A counted along it
Method: as §1, §2

[18] = biological target: T1, Parent (Rho-MatB); assay: Fluorescence titration (excitation 553 nm, emission 571 nm) of 0.5 µM fully purified Rho-MatB with ATP in 50 mM Hepes pH 7.0, 100 mM NaCl, 10 mM MgCl2, 0.3 mg/ml BSA, 20°C, quadratic binding fit.
From the text: as §1
(§3) Fig 2 Nucleotide affinity for variants of Rho-MatB. Titration of ATP (circles) and ADP (triangles) to (A) 0.5 µM Rho-MatB T167A, (B) 0.5 μM Rho-MatB T303A; (C) 0.5 μM Rho-MatB S170A. Measurements are shown for one representative experiment and were in 50 mM Hepes pH 7.0, 100 mM NaCl, 10 mM MgCl2, 0.3 mg ml^-1 bovine serum albumin at 20°C. Excitation was at 553 nm, emission at 571 nm. The dissociation constants and fluorescence ratios were obtained using a quadratic binding equation (see Methods) and are listed in Table 2. The drop lines are to indicate the dissociation constants. Data are normalized to the intensity in the absence of nucleotide.
(§4) The affinity for ATP and ADP was determined by measuring the fluorescence at different concentrations of the nucleotide (Fig 2A and 2B). Both variants show similar fluorescent changes with ATP compared to the parent Rho-MatB, but the dissociation constants (Kd) are much higher (Table 2). In contrast, the affinity of ADP was much less affected by the mutations, remaining very weak (Table 2). The change in ATP affinity presumably reflects the importance of hydrogen-bonding interactions with the triphosphate, decreased by mutating to alanine.

[19] = biological target: T8, S170A Rho-MatB; assay: as above
From the text: as §1, §3, §4

[20] = biological target: T11, T167A Rho-MatB; assay: as above
From the text: as §1, §3, §4

[21] = biological target: T14, T303A Rho-MatB; assay: as above
From the text: as §1, §3, §4

Nc1ncnc2c1ncn2[C@@H]1O[C@H](COP(=O)(O)O)[C@@H](O)[C@H]1O [AMP, adenosine 5'-monophosphate]
Kd [1]: 233 µM and 255 µM

Nc1ncnc2c1ncn2[C@@H]1O[C@H](COP(=O)(O)OP(=O)(O)OP(=O)(O)O)[C@@H](O)[C@H]1O [ATP, adenosine 5'-triphosphate]
Kd [2]: 224 ± 18 µM
Kd [3]: 50 ± 5 µM
Kd [4]: 8.8 ± 0.3 µM
Kd [5]: 66 ± 3 µM
Kd [6]: 33 ± 1 µM
Kd [7]: 2.4 ± 0.1 µM
Kd [8]: 17.4 ± 0.4 µM
Kd [9]: 4 ± 0.1 µM
Kd [10]: 297 ± 27 µM
Kd [11]: 156 ± 7 µM
Kd [12]: 149 ± 7 µM
Kd [13]: 52 ± 1 µM
Kd [14]: 52 ± 5 µM
Kd [15]: 42 ± 1 µM
Kd [16]: 56 ± 3 µM
Kd [17]: 11.1 ± 0.5 µM
Kd [18]: 6.4 ± 0.6 µM
Kd [19]: 3.8 ± 0.1 µM
Kd [20]: 123 ± 4 µM
Kd [21]: 42 ± 2 µM

From article PMC5479551, “Development of a range of fluorescent reagentless biosensors for ATP, based on malonyl-coenzyme A synthetase” (PLoS ONE, 2017)
